Experimental data taken from patent US20050209256A1, “Novel beta-turn mimetics as calcitonin gene related peptide receptor antagonists” (priority 2004, published 2005).

Biological target: T1, human CGRP receptor (Homo sapiens, UniProt O60894+Q16602)
T1 construct: SK-N-MC cells that endogenously express the human CGRP receptor; endogenous in cells; host or cells: SK-N-MC cells (membrane homogenates)
Assay: Radioligand binding assay, [125I]-CGRP competition on SK-N-MC cell homogenates
Settings: Binding data, [125I]-CGRP 40 pM, room temperature
Protocol: Tissue culture. SK-N-MC cells were grown at 37° C. in 5% CO2 as a monolayer in medium consisting of MEM with Earle's salts and L-glutamine (Gibco) supplemented with 10% fetal bovine serum (Gibco).
Radioligand binding assays. Cells were rinsed twice with phosphate-buffered saline (155 mM NaCl, 3.3 mM Na2HPO4, 1.1 mM KH2PO4, pH 7.4), and incubated for 5-10 min. at 4° C. in hypotonic lysis buffer consisting of 10 mM Tris (pH 7.4) and 5 mM EDTA. Cells were transferred from plates to polypropylene tubes (16×100 mm), homogenized and centrifuged at 32,000×g for 30 min. Pellets were resuspended in buffer consisting of 50 mM Tris (pH 7.4) and 1 mM EDTA, homogenized, and centrifuged again at 32,000×g for 30 min. Pellets were resuspended in 100 mM Tris-Cl pH 7.5, 10 mM MgCl2, 0.1% mammalian protease inhibitor cocktail (Sigma) and stored at −80° C. until needed. On the day of an experiment, homogenates were thawed and homogenized again. Binding of [^125I]-CGRP (NEN) was carried out in buffer containing 50 mM Tris-Cl pH 7.5, 5 mM MgCl2, 0.5% BSA. Homogenates (3.5 μg protein/well) were incubated with competitor compounds (solubilized in 100% DMSO at 100× their final assay concentrations) for one hour at room temperature. Then [^125I]-CGRP was added (40 pM final concentration) and the reaction incubated for one additional hour at room temperature. Assays were stopped by addition of cold wash buffer (20 mM Tris-Cl pH 7.5, 0.1% BSA) immediately followed by filtration over glass fiber filters (Whatman GF/B) previously soaked in 0.5% PEI. Non-specific binding was defined with 100 nM CGRP.

Structure (SMILES)	IC50 [nM]
CC(=O)c1ccc(NC(=O)N2CCC(=O)N3C(CSCc4ccccc4)C(=O)N(CCc4cccc(F)c4)C[C@H]23)cc1 (stereo in doubt) [Compound 41, (6S,9aS)-6-Benzylsulfanylmethyl-8-[2-(3-fluoro-phenyl)-ethyl]-4,7-dioxo-hexahydro-pyrazino [1,2-a]pyrimidine-1-carboxylic acid (4-acetyl-phenyl)-amide]	237
C[S+]([O-])c1ccc(NC(=O)N2CCC(=O)N3[C@@H](C4CCCCC4)C(=O)N(CCc4ccccc4)C[C@H]23)cc1 (stereo partly drawn) [Compound 18, (6S,9aS)-6-Cyclohexyl-4,7-dioxo-8-phenethyl-hexahydro-pyrazino[1,2a]pyrimidine-1-carboxylic acid (4-methanesulfinyl-phenyl)-amide]	293
CC(=O)c1ccc(NC(=O)N2CCC(=O)N3[C@@H](C4CCCCC4)C(=O)N(CCc4ccccc4)C[C@H]23)cc1 [Compound 1, (6S,9aS)-6-Cyclohexyl-4,7-dioxo-8-phenethyl-hexahydro-pyrazino[1,2-a]pyrimidine-1-carboxylic acid (4-acetyl-phenyl)-amide]	80
CC(=O)c1ccc(NC(=O)N2CCC(=O)N3C(CS(=O)(=O)Cc4ccccc4)C(=O)N(CCc4cccc(F)c4)C[C@H]23)cc1 (stereo in doubt) [Compound 45, (6S,9aS)-8-[2-(3-Fluoro-phenyl)-ethyl]-4,7-dioxo-6-phenylmethanesulfonylmethyl-hexahydro-pyrazino[1,2-a]pyrimidine-1-carboxylic acid (4-acetyl-phenyl)-amide]	1940
CC[C@H](C)[C@H]1C(=O)N(CCc2cccc(F)c2)C[C@@H]2N(C(=O)Nc3ccc(C(C)=O)cc3)CCC(=O)N12 [Compound 21, (6S,9aS)-6-(1S-Methyl-propyl)-8-[2-(3-fluoro-phenyl)-ethyl]-4,7-dioxo-hexahydro-pyrazino[1,2-a]pyrimidine-1-carboxylic acid (4-acetyl-phenyl)-amide]	233
CC(=O)c1ccc(NC(=O)N2CCC(=O)N3C(C[S+]([O-])Cc4ccccc4)C(=O)N(CCc4cccc(F)c4)C[C@H]23)cc1 (stereo in doubt) [Compound 44, (6S,9aS)-8-[2-(3-Fluoro-phenyl)-ethyl]-4,7-dioxo-6-phenylmethanesulfinylmethyl-hexahydro-pyrazino[1,2-a]pyrimidine-1-carboxylic acid (4-acetyl-phenyl)-amide]	3440
CC(=O)c1ccc(NC(=O)N2CCC(=O)N3[C@@H]2CN(CCc2cccc(F)c2)C(=O)[C@@H]3Cc2ccc(OCc3ccccc3)cc2)cc1 [Compound 33, (6S,9aS)-6-(4-Benzyloxy-benzyl)-8-[2-(3-fluoro-phenyl)-ethyl]-4,7-dioxo-hexahydro-pyrazino[1,2-a]pyrimidine-1-carboxylic acid (4-acetyl-phenyl)-amide]	2260
CC(=O)c1ccc(NC(=O)N2CCC(=O)N3[C@@H]2CN(CCc2cccc(F)c2)C(=O)[C@@H]3COCc2ccccc2)cc1 [Compound 32, (6S,9aS)-6-Benzyloxymethyl-8-[2-(3-fluoro-phenyl)-ethyl]-4,7-dioxo-hexahydro-pyrazino[1,2-a]pyrimidine-1-carboxylic acid (4-acetyl-phenyl)-amide]	598
CSCC1C(=O)N(CCc2cccc(F)c2)C[C@@H]2N(C(=O)Nc3ccc(C(C)=O)cc3)CCC(=O)N12 (stereo in doubt) [Compound 37, (6S,9aS)-8-[2-(3-Fluoro-phenyl)-ethyl]-6-methylsulfanylmethyl-4,7-dioxo-hexahydro-pyrazino[1,2-a]pyrimidine-1-carboxylic acid (4-acetyl-phenyl)-amide]	704
CC(=O)c1ccc(NC(=O)N2CCC(=O)N3[C@@H]2CN(CCc2cccc(F)c2)C(=O)[C@@H]3CCCCNC(=O)OCc2ccccc2)cc1 [Compound 31, (4-{1-(4-Acetyl-phenylcarbamoyl)-(6S,9aS)-8-[2-(3-fluoro-phenyl)-ethyl]-4,7-dioxo-octahydro-pyrazino[1,2-a]pyrimidin-6-yl}-butyl)-carbamic acid benzyl ester]	1050
CC(=O)c1ccc(NC(=O)N2CCC(=O)N3[C@@H]2CN(CCc2cccc(F)c2)C(=O)[C@@H]3CC(=O)OCc2ccccc2)cc1 [Compound 30, {1-(4-Acetyl-phenylcarbamoyl)-(6S,9aS)-8-[2-(3-fluoro-phenyl)-ethyl]-4,7-dioxo-octahydro-pyrazino [1,2-a]pyrimidin-6-yl}-acetic acid benzyl ester]	2210

The next lines start with the values.

IC50 [nM]	Structure (SMILES)
358	CC(=O)c1ccc(NC(=O)N2CCC(=O)N3[C@@H](C4CCOCC4)C(=O)N(CCc4cccc(F)c4)C[C@H]23)cc1 [Compound 52, (6S,9aS)-8-[2-(3-Fluoro-phenyl)-ethyl]-4,7-dioxo-6-(tetrahydro-pyran-4-yl)-hexahydro-pyrazino[1,2-a]pyrimidine-1-carboxylic acid (4-acetyl-phenyl)-amide]
12000	NC(=O)c1ccc(NC(=O)N2CCC(=O)N3[C@@H]2CN(CCc2ccccc2)C(=O)[C@@H]3CC2CCCCC2)cc1 [Compound 111, (6S,9aS)-6-Cyclohexylmethyl-4,7-dioxo-8-phenethyl-hexahydro-pyrazino[1,2-a]pyrimidine-1-carboxylic acid (4-carbamoyl-phenyl)-amide]
364	CC(=O)c1ccc(OC(=O)N2CCC(=O)N3[C@@H]2CN(CCc2ccccc2)C(=O)[C@@H]3CC2CCCCC2)cc1C [Compound 146, (6S,9aS)-6-Cyclohexylmethyl-4,7-dioxo-8-phenethyl-hexahydro-pyrazino[1,2-a]pyrimidine-1-carboxylic acid 4-acetyl-3-methyl-phenyl ester]
1270	CC(=O)c1ccc(NC(=O)N2CCC(=O)N3[C@@H]2CN(CCc2cccc(F)c2)C(=O)[C@@H]3Cc2cncn2C)cc1 [Compound 54, (6S,9aS)-8-[2-(3-Fluoro-phenyl)-ethyl]-6-(3-methyl-3H-imidazol-4-ylmethyl)-4,7-dioxo-hexahydro-pyrazino[1,2-a]pyrimidine-1-carboxylic acid (4-acetyl-phenyl)-amide]
39	CC(=O)c1ccc(NC(=O)N2CCC(=O)N3[C@@H](c4ccc(F)c(F)c4)C(=O)N(CCc4cccc(F)c4)C[C@H]23)cc1 [Compound 151, 6-(3,4-Difluoro-phenyl)-8-[2-(3-fluoro-phenyl)-ethyl]-4,7-dioxo-hexahydro-pyrazino [1,2-a]pyrimidine-1-carboxylic acid (4-acetyl-phenyl)-amide]
192	CC[C@H](C)[C@H]1C(=O)N(CCc2cccc(F)c2)C[C@@H]2N(C(=O)Nc3ccc(C(C)=O)cc3)CCC(=O)N12 (stereo in doubt) [Compound 47, (6S,9aS)-6-(1R-Methyl-propyl)-8-[2-(3-fluoro-phenyl)-ethyl]-(S,S)-4,7-dioxo-hexahydro-pyrazino[1,2-a]pyrimidine-1-carboxylic acid (4-acetyl-phenyl)-amide]
8560	CC(=O)c1ccc(OC(=O)N2CCC(=O)N3[C@@H](C4CCCCC4)C(=O)N(CCc4ccccc4)C[C@H]23)cc1 [Compound 149, (6S,9aS)-6-Cyclohexyl-4,7-dioxo-8-phenethyl-hexahydro-pyrazino[1,2-a]pyrimidine-1-carboxylic acid 4-acetyl-phenyl ester]
2580	CC(=O)c1ccc(NC(=O)N2CCC(=O)N3[C@@H](C4CCCCC4)C(=O)N(CCc4ccccc4Cl)C[C@H]23)cc1 [Compound 116, (6S,9aS)-8-[2-(2-Chloro-phenyl)-ethyl]-6-cyclohexyl-4,7-dioxo-hexahydro-pyrazino[1,2-a]pyrimidine-1-carboxylic acid (4-acetyl-phenyl)-amide]
8000	CC(=O)c1ccc(NC(=O)N2CCC(=O)N3[C@@H](C4CCCCC4)C(=O)N(CCc4ccncc4)C[C@H]23)cc1 [Compound 132, (6S,9aS)-6-Cyclohexyl-4,7-dioxo-8-(2-pyridin-4-yl-ethyl)-hexahydro-pyrazino[1,2-a]pyrimidine-1-carboxylic acid (4-acetyl-phenyl)-amide]
159	CC(=O)c1ccc(NC(=O)N2CCC(=O)N3[C@@H](c4cccc(F)c4)C(=O)N(CCc4cccc(F)c4)C[C@H]23)cc1 [Compound 152, (6S,9aS)-6-(3-Fluoro-phenyl)-8-[2-(3-fluoro-phenyl)-ethyl]-4,7-dioxo-hexahydro-pyrazino[1,2-a]pyrimidine-1-carboxylic acid (4-acetyl-phenyl)-amide]
500	CC(=O)c1ccc(NC(=O)N2CCC(=O)N3[C@@H]2CN(CCc2cccc(F)c2)C(=O)[C@@H]3Cc2c(F)c(F)c(F)c(F)c2F)cc1 [Compound 57, (6S,9aS)-8-[2-(3-Fluoro-phenyl)-ethyl]-4,7-dioxo-6-pentafluorophenylmethyl-hexahydro-pyrazino [1,2a]pyrimidine-1-carboxylic acid (4-acetyl-phenyl)-amide]
